Assay results reported in the SangsterLogP compilation.

Experiment: method code SF-AS, from DOI: 10.1002/ardp.19893220504, PMID: 2569302
Details: pH 7.4
Work on `COc1ccc2c(=O)c(C)c(-c3ccc(F)cc3)oc2c1CN1CCCCC1` yielded a logD of 2.71. `COc1ccc2c(=O)c(C)c(-c3ccc(Cl)cc3)oc2c1CN1CCCC1` gave a logD of 2.75. For `COc1ccc2c(=O)c(C)c(-c3ccc(F)cc3)oc2c1CN(C)C`, the logD was 1.97. With `CCN(CC)Cc1c(OC)ccc2c(=O)c(C)c(-c3ccccc3)oc12` the logD was 1.99. Work on `COc1ccc2c(=O)c(C)c(-c3ccc(Cl)cc3)oc2c1CN1CCCCC1` yielded a logD of 3.46. Compound `COc1ccc2c(=O)c(C)c(-c3ccc(C)cc3)oc2c1CN1CCCC1` has a logD of 2.5. `CCN(CC)Cc1c(OC)ccc2c(=O)c(C)c(-c3ccc([N+](=O)[O-])cc3)oc12` showed a logD of 1.7. For `COc1ccc2c(=O)c(C)c(-c3ccc(Cl)cc3)oc2c1CN1CCOCC1`, the logD was 3.94. In the case of `COc1ccc2c(=O)c(C)c(-c3ccc([N+](=O)[O-])cc3)oc2c1CN1CCCCC1`, the logD is reported as 2.53. For `COc1ccc2c(=O)c(C)c(-c3ccc(F)cc3)oc2c1CN1CCCC1`, the logD was 2.13. For `COc1ccc2c(=O)c(C)c(-c3ccc(Cl)cc3)oc2c1CN(C)C`, the logD was 2.62. In the case of `COc1ccc2c(=O)c(C)c(-c3ccc(F)cc3)oc2c1CN1CCOCC1`, the logD is reported as 3.26. Work on `COc1ccc2c(=O)c(C)c(-c3ccc([N+](=O)[O-])cc3)oc2c1CN1CCCC1` yielded a logD of 1.83. For `CCN(CC)Cc1c(OC)ccc2c(=O)c(C)c(-c3ccc(C)cc3)oc12`, the logD was 2.46. With `COc1ccc2c(=O)c(C)c(-c3ccc([N+](=O)[O-])cc3)oc2c1CN1CCOCC1` the logD was 3.02. Work on `COc1ccc2c(=O)c(C)c(-c3ccc([N+](=O)[O-])cc3)oc2c1CN(C)C` yielded a logD of 1.73. Work on `COc1ccc2c(=O)c(C)c(-c3ccccc3)oc2c1CN1CCOCC1` yielded a logD of 3.25. In the case of `COc1ccc2c(=O)c(C)c(-c3ccccc3)oc2c1CN1CCCCC1`, the logD is reported as 2.63. Compound `COc1ccc2c(=O)c(C)c(-c3ccccc3)oc2c1CN(C)C` has a logD of 1.93. For `COc1ccc2c(=O)c(C)c(-c3ccc(C)cc3)oc2c1CN1CCCCC1`, the logD was 3.13. For `COc1ccc2c(=O)c(C)c(-c3ccc(C)cc3)oc2c1CN(C)C`, the logD was 2.41. With `CCN(CC)Cc1c(OC)ccc2c(=O)c(C)c(-c3ccc(F)cc3)oc12` the logD was 1.99. For `CCN(CC)Cc1c(OC)ccc2c(=O)c(C)c(-c3ccc(Cl)cc3)oc12`, the logD was 2.66. In the case of `COc1ccc2c(=O)c(C)c(-c3ccc(C)cc3)oc2c1CN1CCOCC1`, the logD is reported as 3.71.
